Laboratory results: US7071190B2, “Inhibitors to tubulin polymerization” (Rigel Pharmaceuticals, Inc., priority 2002, dated 2006)
“Also recorded” adds a separate entry of the source.

Columns and labels:
[1] = tested on: MAP-rich tubulin protein from bovine brain; experiment: Tubulin polymerization turbidity assay (A340 over time); format: biochemical; settings: 10 μM compound, FIG. 1 (a), (b)
Protocol: FIG. 1. Tubulin polymerization inhibitory activity of the compounds of the invention was assayed by following the turbidity of a tubulin-containing solution over time. Polymerization of tubulin generates microtubules, the presence of which increases the absorbance of the assay solution over time. Effective inhibition manifests as a reduction of rate of absorbance increase at 340 nanometers. (a) 10 μM of compounds 19, 39, 43, 54 and 62, as well as 10 μM nocodazole as a positive control and DMSO as a negative control. (b) 10 μM of compounds 1, 88, 95, and 54, as well as 10 μM as well a positive controls 1 and 2 and DMSO as a negative control. (c) 0.4, 2.0 and 10 μM compound 54 versus 0.4, 2.0 and 10 μM nocodazole as a positive control and DMSO as a negative control.
Measurement of the tubulin polymerization can be achieved using known methodologies. For example, assays for tubulin polymerization may be performed using a kit from Cytoskeleton (Denver, Colo.) and as described by Tahir, S. K., et al, (2001) Cancer Res., 61:5480–5.
The assay measures tubulin polymerization as an increase in turbidity (A340) over time. Assays for tubulin polymerization were performed using a kit from Cytoskeleton (Denver, Colo.) and as described by Tahir, S. K., et al, (2001) Cancer Res., 61: 5480–5, incorporated herein by reference, and as described below.
To determine the ability of the compounds to inhibit microtubule polymerization in vitro, the following protocol was followed: (i) 70 μl ice-cold MAP-rich tubulin protein from bovine brain (1.5 mg/ml final concentration) was added to polymerization buffer (80 mM PIPES pH6.8, 1 mM EGTA, 1 mM MgCl2, 1 mM GTP) in a quartz microcuvette; (ii) 0.7 μl of DMSO or 100X stock of control (nocodazole) or test compound (thienopyrimidine) in DMSO were added to the cuvette; (iii) the contents were mixed by pipefting gently; (iv) the polymerization reaction was initiated by placing the cuvette in pre-warmed (37° C.) cuvette holder in Beckman spectrophotometer; (v) the absorbance was monitored at 340 nm at 30 second intervals for 20 minutes. Tubulin polymerization result in increased turbidity in the reaction solution, which is registered as an increase in absorbance at 340 nm. Inhibitors of tubulin polymerization are detected by a reduction in the rate, the initial slope, and/or extent of the turbidity change (i.e., max. absorbance at 340 nm) in plots of ΔA340 versus time.

A549 (lung) tumors = experiment: A549 (lung) human tumor xenograft in nude mice; format: in vivo, NCr nude (nu/nu) female mice; settings: for Increase in tumor volume at 35 days normalized to tumor volume at start of drug treatment: vehicle approximately 7-fold; for %T/C (mean tumor volume treated vs. control ×100): A549 xenografts
Text: (§1) A nude mouse/human carcinoma model was used to examine the effect of tubulin inhibitors on tumor growth and animal survival. Groups of immune deficient (nude) mice were implanted subcutaneously with suspensions of the human tumor lines A549 (lung) and SW480 (colon). When palpable tumors appeared and were of a preselected volume (approximately 40–150 mm^3), animals were subdivided into various treatment groups such that the variation in mean tumor volume of each group was within 10%. The animals were then treated daily with either control vehicle or Compound 1 administered by intraperitonel injection. Twice weekly, the volume of the tumors in each animal in each group was measured to gather information on tumor growth (volume) as a function of time. Systemic toxicity was assessed by measuring individual animal body weights, and toxicity was evaluated by examination of differences in body weight gain as a function of time. Tumor volumes and body weights were monitored for up to 35 days after the beginning of treatment.
Cell Lines: Human tumor lines A549 (lung) and SW480 (colon) were grown in cell culture medium (F-11) containing 10% Fetal Bovine Serum (FBS). The cells were kept at 37° C. in a humidified 5% CO2/air incubator. Antibiotics were not added to the medium.
NCr nude (nu/nu) female mice, age 3–4 weeks, were purchased from Taconic (Germantown, N.Y.). The animals were housed ten per cage in sterile filter-topped cages in ventilated cage racks and Microisolator™ cages. Upon arrival, they were quarantined for at least four working days before use. Temperature was maintained at 72±5° F. (19–24° C.) and relative humidity at 35–70%, and a 12-hour light/dark cycle was used. The mice were fed sterile, autoclavable, certified, Purina rodent chow ad libitum. Drinking water was also autoclaved.
After the animals were released from quarantine, the mice were injected subcutaneously in the right flank with either 5×10^6 A549 cells or 5×10^6 SW480 cells in complete medium at an injection volume of 0.1 ml. Tumor dimensions and body weights were measured two times per week. Vernier calipers were used to measure tumors in two planes, and tumor volume (V) was calculated as follows: V=(xy^2)/2,
The test articles were administered intraperitoneally generally at a dose level of 10 mg/kg. When the solubility of a molecule of the invention was relatively low, we used relatively higher levels of organic co-solvents for preparation of the dosing solution. The “vehicle” of the invention comprised of 7.1% ethanol/35.8% PEG400/57.1% phosphate buffer (v/v/v).
When the tumor volumes reached a predetermined size (mean tumor volume between about 40–150 mm^3), animals were added randomly to treatment groups of 12 mice each as follows: Animals were treated daily with the vehicle or Compound 1 (10 mg/kg), or with the positive control drug (Taxol) administered by intraperitoneal injection at the maximum tolerated dose of 20 mg/kg every fourth day, on Days 1, 4, 7, and 10.
The tumor volumes of the animals were monitored for evidence of shrinkage or growth delay for a period of up to 35 days after the start of treatment. Response to treatment was measured in two ways, depending on the tumor response to treatment. The first was the optimum T/C (%), calculated as follows: For each day the tumors were measured, the changes in median tumor volume (V) for each treated (T) and control (C) group were determined by subtracting the […] tumor volume on the first day of treatment (Day 0) from the median tumor volume on the specific observation day. These values were used to express a percent difference in size, [% T/C=(T/C)×100]. The minimum value is designated the optimum response to treatment. A value of 42% or less is considered active by National Cancer Institute (NCI) standards. […]

A549 cells = experiment: Bromodeoxyuridine (BrdU) proliferation assay; format: cell-based, human
Outline: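 A549 cells were plated 24 h before compound, which was given at final 10, 3, 1, 0.3, 0.1 and 0.03 μM in 0.2% DMSO/0.75% ethanol.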

SW480 tumors = experiment: SW480 (colon) human tumor xenograft in nude mice; format: in vivo, NCr nude (nu/nu) female mice; settings: 10 mg/kg daily intraperitoneal
Text: as §1, with “treatment. […]” for “treatment.”
After the animals were released from quarantine, the mice were injected subcutaneously in the right flank with either 5×10^6 A549 cells or 5×10^6 SW480 cells in complete medium at an injection volume of 0.1 ml. Tumor dimensions and body weights were measured two times per week. […]

SMILES | Inhibition of tubulin polymerization (reduction of rate of absorbance increase at 340 nanometers) [1] | Increase in tumor volume at 35 days normalized to tumor volume at start of drug treatment (A549 (lung) tumors; A549 xenograft, 10 mg/kg daily intraperitoneal) [fold] | Mean tumor volume after 27 days of treatment (A549 (lung) tumors; A549 xenograft, 10 mg/kg daily, vehicle control 346.9±164.7 mm^3) [mm^3] | Effect on tumor growth (A549 (lung) tumors; A549 xenograft, Compound 1 10 mg/kg daily intraperitoneal, 10 mg/kg) | %T/C (mean tumor volume treated vs. control ×100) (A549 (lung) tumors; 10 mg/kg daily intraperitoneal) [%] | IC50 (A549 cells; Homo sapiens, A549, 48 h, BrdU ELISA 48 hours after addition of compound, tested 0.03-10 uM, cell line not given (A549 method; SW-480 and MDA-MB-231 also used), read-out: Assay Result (IC50μM)) [µM] | Activity ranking: most active compounds of the invention (A549 cells; antiproliferative activity) | Activity ranking: particularly active examples of the compounds of the invention (A549 cells; antiproliferative activity) | Effect on tumor size (SW480 tumors) | Tumor volume (SW480 tumors; controls 677.9±574.3 mm^3) [mm^3] | Increase in tumor volume at 35 days normalized to tumor volume at start of drug treatment (A549 (lung) tumors; A549 xenograft, 20 mg/kg intraperitoneal every fourth day (Days 1, 4, 7, 10)) [fold] | %T/C (mean tumor volume treated vs. control ×100) (A549 (lung) tumors; 20 mg/kg intraperitoneal every fourth day) [%]
S=C(NNc1ncnc2cc(-c3ccccc3)sc12)Nc1ccccc1 [Compound 1] | Inhibition activity is observed | 4 | 223.8±164.1 | slowed tumor growth substantially; also recorded: substantial suppression of tumor growth | 65 | 0.664 | most active | particularly active | did not result in a reduced tumor size | 647.7±500.6 | – | –
CC(=O)O[C@H]1C(=O)[C@@]2(C)[C@H]([C@H](OC(=O)c3ccccc3)[C@]3(O)C[C@H](OC(=O)[C@H](O)[C@@H](NC(=O)c4ccccc4)c4ccccc4)C(C)=C1C3(C)C)[C@]1(OC(C)=O)CO[C@@H]1C[C@@H]2O [Taxol, reference compound] | – | – | – | – | – | – | – | – | – | – | 4 | 59
